The subject of this data set is rodent carcinogenicity bioassays, tumor incidence. In words: CCRIS carcinogenicity studies. An outline of the steps: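 Archive of carcinogenicity, mutagenicity, tumor promotion and tumor inhibition results drawn from journals, NCI reports and other sources, expert-reviewed; covers 1985-2011 and is no longer updated.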

Active and inactive are the calls of the source. No rule for the calls is given here.

On to `c1ccc2c3c4c(cccc4cc2c1)CC3`, for which the carcinogen call is, setting by setting: (Species: MOUSE, Strain/Sex: BLU:HA/FEMALE, Route: INTRAPERITONEAL, Dose: 0, 175 UG/KG/D ON DAYS 1 (1/7 TOTAL DOSE), 8 (2/7 TOTAL DOSE), AND 15 (4/7 TOTAL DOSE) AFTER BIRTH (STUDY DURATION: 9 MO) “inactive; negative”; (Species: MOUSE, Strain/Sex: BLU:HA/MALE, Route: INTRAPERITONEAL, Dose: 0, 175 UG/KG/D ON DAYS 1 (1/7 TOTAL DOSE), 8 (2/7 TOTAL DOSE), AND 15 (4/7 TOTAL DOSE) AFTER BIRTH (STUDY DURATION: 9 MO) “inactive; negative”; (Species: MOUSE, Strain/Sex: CD-1/FEMALE, Route: INTRAPERITONEAL, Dose: 0, 175, 437.5, 875 UG/KG/D ON DAYS 1 (1/7 TOTAL DOSE), 8 (2/7 TOTAL DOSE), AND 15 (4/7 TOTAL DOSE) AFTER BIRTH (STUDY DU, Dose: 0, 175, 437.5, 875 UG/KG/D ON DAYS 1 (1/7 TOTAL DOSE), 8 (2/7 TOTAL DOSE), AND 15 (4/7 TOTAL DOSE) AFTER BIRTH (STUDY DU) “inactive; negative”; (Species: MOUSE, Strain/Sex: CD-1/MALE, Route: INTRAPERITONEAL, Dose: 0, 175, 437.5, 875 UG/KG/D ON DAYS 1 (1/7 TOTAL DOSE), 8 (2/7 TOTAL DOSE), AND 15 (4/7 TOTAL DOSE) AFTER BIRTH (STUDY DU, Dose: 0, 175, 437.5, 875 UG/KG/D ON DAYS 1 (1/7 TOTAL DOSE), 8 (2/7 TOTAL DOSE), AND 15 (4/7 TOTAL DOSE) AFTER BIRTH (STUDY DU, Tumor Site: Type of Lesion: LUNG: ADENOMA OR ADENOCARCINOMA) “active; positive”.
Regarding `O=C(O)C1C(C(=O)O)C2(Cl)C(Cl)=C(Cl)C1(Cl)C2(Cl)Cl` (configuration not stated), the carcinogen call is “inactive; negative” (Species: MOUSE, Strain/Sex: B6C3F1/FEMALE, Route: ORAL, Dose: 0, 620, 1250 PPM IN DIET FOR 103 WK (STUDY DURATION: 104 WK), Dose: 0, 620, 1250 PPM IN DIET FOR 103 WK (STUDY DURATION: 104 WK)); “active; positive” (Species: MOUSE, Strain/Sex: B6C3F1/MALE, Route: ORAL, Dose: 0, 620, 1250 PPM IN DIET FOR 103 WK (STUDY DURATION: 104 WK), Dose: 0, 620, 1250 PPM IN DIET FOR 103 WK (STUDY DURATION: 104 WK), Tumor Site: Type of Lesion: LIVER: HEPATOCELLULAR ADENOMA, LIVER: HEPATOCELLULAR CARCINOMA, LIVER: HEPATOCELLULAR ADENOMA OR CARCINOMA, Tumor Site: Type of Lesion: LIVER: HEPATOCELLULAR ADENOMA, LIVER: HEPATOCELLULAR CARCINOMA, LIVER: HEPATOCELLULAR ADENOMA OR CARCINOMA); “active; positive” (Species: RAT, Strain/Sex: F344/FEMALE, Route: ORAL, Dose: 0, 620, 1250 PPM IN DIET FOR 103 WK (STUDY DURATION: 104 WK), Dose: 0, 620, 1250 PPM IN DIET FOR 103 WK (STUDY DURATION: 104 WK), Tumor Site: Type of Lesion: LIVER: NEOPLASTIC NODULE, LIVER: HEPATOCELLULAR CARCINOMA, LIVER: NEOPLASTIC NODULE OR HEPATOCELLULAR CARCINOMA, UTERUS:, Tumor Site: Type of Lesion: LIVER: NEOPLASTIC NODULE, LIVER: HEPATOCELLULAR CARCINOMA, LIVER: NEOPLASTIC NODULE OR HEPATOCELLULAR CARCINOMA, UTERUS:); “active; positive” (Species: RAT, Strain/Sex: F344/MALE, Route: ORAL, Dose: 0, 620, 1250 PPM IN DIET FOR 103 WK (STUDY DURATION: 104 WK), Dose: 0, 620, 1250 PPM IN DIET FOR 103 WK (STUDY DURATION: 104 WK), Tumor Site: Type of Lesion: LUNG: ALVEOLAR/BRONCHIOLAR ADENOMA, LUNG: ALVEOLAR/BRONCHIOLAR ADENOMA OR CARCINOMA, LIVER: NEOPLASTIC NODULE, LIVER: NE, Tumor Site: Type of Lesion: LUNG: ALVEOLAR/BRONCHIOLAR ADENOMA, LUNG: ALVEOLAR/BRONCHIOLAR ADENOMA OR CARCINOMA, LIVER: NEOPLASTIC NODULE, LIVER: NE).
Turning to `CNC(=O)c1c(N(C)N=O)ncn1C`, the carcinogen call (Species: RAT, Strain/Sex: BD-IX/MALE, FEMALE, Route: ORAL, Dose: 0, 3, 5, 15 MG/KG/D IN DRINKING WATER 5D/WK FOR DURATION OF STUDY (STUDY DURATION: LIFETIME), Dose: 0, 3, 5, 15 MG/KG/D IN DRINKING WATER 5D/WK FOR DURATION OF STUDY (STUDY DURATION: LIFETIME), Tumor Site: Type of Lesion: NASAL CAVITY: TUMOR) was “active; positive”.
On to `CO[C@@]12[C@H](COC(N)=O)C3=C(C(=O)C(C)=C(N)C3=O)N1C[C@@H]1N[C@@H]12`, for which the carcinogen call reads like this: (Species: RAT, Route: INTRAPERITONEAL, Tumor Site: Type of Lesion: PERITONEAL CAVITY) “active; positive”; (Species: RAT, Route: INTRAVENOUS, Tumor Site: Type of Lesion: PERITONEAL CAVITY, MAMMARY GLAND, INTESTINES, Tumor Site: Type of Lesion: PERITONEAL CAVITY, MAMMARY GLAND, INTESTINES) “active; positive”.
As for `CC(C)[C@H](C(=O)O[C@H](C#N)c1cccc(Oc2ccccc2)c1)c1ccc(Cl)cc1`, the carcinogen call (Species: Mouse, Strain/Sex: Crl:CD-17BR/Female (80/Group), Route: Oral, Dose: 0, 35, 150 ppm in diet for 18 mo, study duration 18 mo, Dose: 0, 35, 150 ppm in diet for 18 mo, study duration 18 mo) is “inactive; negative. a 350 ppm group was terminated at study day 58 due to self-trauma and” and the carcinogen call (Species: Mouse, Strain/Sex: Crl:CD-17BR/Male (80/Group), Route: Oral, Dose: 0, 35, 150 ppm in diet for 18 mo, study duration 18 mo, Dose: 0, 35, 150 ppm in diet for 18 mo, study duration 18 mo) is “inactive; negative. a 350 ppm group was terminated at study day 58 due to self-trauma and”.
As to `Clc1cccc(-c2ccc(Cl)c(Cl)c2Cl)c1Cl`, the carcinogen call was “active; positive” (Species: MOUSE, Strain/Sex: BALB/MALE, Route: ORAL, Dose: 300 MG/KG IN DIET FOR 6 OR 11 MO, Tumor Site: Type of Lesion: LIVER: HEPATOMA); “equivocal” (Species: RAT, Strain/Sex: F344/FEMALE, Route: ORAL, Dose: 0, 25, 50, 100 PPM IN DIET FOR 104-105 WK (STUDY DURATION: 104-105 WK), Dose: 0, 25, 50, 100 PPM IN DIET FOR 104-105 WK (STUDY DURATION: 104-105 WK), Tumor Site: Type of Lesion: LIVER: ADENOMA, STOMACH: ADENOMA, ADENOCARCINOMA); “equivocal” (Species: RAT, Strain/Sex: F344/MALE, Route: ORAL, Dose: 0, 25, 50, 100 PPM IN DIET FOR 104-105 WK (STUDY DURATION: 104-105 WK), Dose: 0, 25, 50, 100 PPM IN DIET FOR 104-105 WK (STUDY DURATION: 104-105 WK), Tumor Site: Type of Lesion: LIVER: HEPATOCELLULAR ADENOMA, HEPATOCELLULAR CARCINOMA, GASTROINTESTINAL SYSTEM: ADENOCARCINOMA OR CARCINOMA); “active; positive” (Species: RAT, Strain/Sex: SPRAGUE-DAWLEY/FEMALE, Route: ORAL, Dose: 0, 25, 50, 100 PPM IN DIET FOR THE DURATION OF STUDY (STUDY DURATION: 24 MO), Dose: 0, 25, 50, 100 PPM IN DIET FOR THE DURATION OF STUDY (STUDY DURATION: 24 MO), Tumor Site: Type of Lesion: LIVER: TUMOR); “active; positive” (Species: RAT, Strain/Sex: SPRAGUE-DAWLEY/MALE, Route: ORAL, Dose: 0, 25, 50, 100 PPM IN DIET FOR THE DURATION OF STUDY (STUDY DURATION: 24 MO), Dose: 0, 25, 50, 100 PPM IN DIET FOR THE DURATION OF STUDY (STUDY DURATION: 24 MO), Tumor Site: Type of Lesion: THYROID GLAND: ADENOMA OR CARCINOMA).
Take `Nc1ccc(Cl)cc1N`: the carcinogen call was “active; positive” (Species: MOUSE, Strain/Sex: B6C3F1/FEMALE, Route: ORAL, Dose: 0, 0.7, 1.4% TWA, IN DIET FOR 78 WK (STUDY DURATION: 96-97 WK), Dose: 0, 0.7, 1.4% TWA, IN DIET FOR 78 WK (STUDY DURATION: 96-97 WK), Tumor Site: Type of Lesion: LIVER: HEPATOCELLULAR CARCINOMA, HEPATOCELLULAR ADENOMA OR CARCINOMA); “active; positive” (Species: MOUSE, Strain/Sex: B6C3F1/MALE, Route: ORAL, Dose: 0, 0.7, 1.4% TWA, IN DIET FOR 78 WK (STUDY DURATION: 95-97 WK), Dose: 0, 0.7, 1.4% TWA, IN DIET FOR 78 WK (STUDY DURATION: 95-97 WK), Tumor Site: Type of Lesion: LIVER: HEPATOCELLULAR CARCINOMA, HEPATOCELLULAR ADENOMA OR CARCINOMA); “active; positive” (Species: RAT, Strain/Sex: F344/FEMALE, Route: ORAL, Dose: 0, 0.5, 1.0% IN DIET FOR 78 WK (STUDY DURATION: 106 WK), Dose: 0, 0.5, 1.0% IN DIET FOR 78 WK (STUDY DURATION: 106 WK), Tumor Site: Type of Lesion: URINARY BLADDER: PAPILLARY CARCINOMA OR TRANSITIONAL CELL CARCINOMA, PAPILLARY CARCINOMA OR TRANSITIONAL CELL CARCINOMA); “active; positive” (Species: RAT, Strain/Sex: F344/MALE, Route: ORAL, Dose: 0, 0.5, 1.0% IN DIET FOR 78 WK (STUDY DURATION: 105-106 WK), Dose: 0, 0.5, 1.0% IN DIET FOR 78 WK (STUDY DURATION: 105-106 WK), Tumor Site: Type of Lesion: URINARY BLADDER: TRANSITIONAL CELL CARCINOMA, PAPILLOMA (NOS) OR TRANSITIONAL CELL PAPILLOMA OR TRANSITIONAL CELL CARCIN).

Source of the values: PubChem BioAssay AID1259411 (Chemical Carcinogenesis Research Information System (CCRIS), 2018).
